Measurements taken from publication PMC5520047, “Prioritizing multiple therapeutic targets in parallel using automated DNA-encoded library screening” (Nature Communications, 2017).
Converted amounts (≈) assume the structure as drawn. “Also recorded” adds a separate entry of the source. Where two headings read alike, the source gives them in different places.

Tests used:
[1] = molecular target: S. aureus methionine aminopeptidase, MetAP (Staphylococcus aureus, UniProt P0A078); assay: MetAP biochemical assay (fluorescence intensity coupled); settings: average of two replicates with s.d.
S. aureus methionine aminopeptidase, MetAP, sequence (P0A078 whole entry): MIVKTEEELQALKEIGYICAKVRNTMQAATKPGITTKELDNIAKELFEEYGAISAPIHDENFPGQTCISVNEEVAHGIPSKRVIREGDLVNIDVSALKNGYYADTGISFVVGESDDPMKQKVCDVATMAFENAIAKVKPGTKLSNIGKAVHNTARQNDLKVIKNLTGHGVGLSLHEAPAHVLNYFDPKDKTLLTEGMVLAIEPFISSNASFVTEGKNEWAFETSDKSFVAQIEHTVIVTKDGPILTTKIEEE
Text: (§1) 368 Both the S. aureus and A. baumannii UppS in vitro biochemical assay use a pyrophosphatase and Biomol
(§2) 369 Green Phosphate detection reagent to assess catalytic activity. These assays were based on previously
(§3) 370 described assays both within GSK and others11-13. Briefly, the enzyme will add up to 8 isopentyl
(§4) 371 pyrophosphate (IPP) units onto a farnesyl pyrophosphate FPP molecule, resulting in the production of 8
(§5) 372 moles of inorganic pyrophosphates per mole of substrate added. The pyrophosphate is then converted
(§6) 373 to inorganic phosphate by a pyrophosphatase, and this phosphate is detected by Biomol Green. The
(§7) 374 assay is conducted in buffer containing 100 mM Trizma pH7.5, 1 mM MgCl2, 6 mM CHAPS and 0.005% […]
(§8) 378 10 μL. The detection reagent was incubated for 20 min and 610-620 nm light was monitored by a Perkin
(§9) 379 Elmer Envision plate reader. […]
(§10) 383 Standard deviation values were calculated using the n-1 method. […]
(§11) 388 A fluorescence intensity coupled assay was used to measure the in vitro biochemical activity of S. aureus […]
(§12) 391 enzyme then digests the liberated peptide GFGF-AFC releasing the AFC causing a fluorescence increase
(§13) 392 monitored by an Envision plate reader. […]
(§14) 395 90 minute incubation with quench/detection solution, plates were read on an envision plate reader with […]
(§15) 406 A fluorescence intensity coupled assay was used to measure the in vitro biochemical activity of M. […]

[2] = tested on: S. aureus WCUH29 wild type; assay: MIC broth microdilution; type: cell-based, Staphylococcus aureus; settings: for MIC: Staphylococcus aureus, WCUH29WILDTYPE
A. baumannii UppS = A. baumannii UppS (Acinetobacter baumannii, UniProt V5VCK8); assay: UppS biochemical assay (pyrophosphatase / Biomol Green); settings: average of two replicates with s.d.
A. baumannii UppS, sequence (V5VCK8 entry or part of it): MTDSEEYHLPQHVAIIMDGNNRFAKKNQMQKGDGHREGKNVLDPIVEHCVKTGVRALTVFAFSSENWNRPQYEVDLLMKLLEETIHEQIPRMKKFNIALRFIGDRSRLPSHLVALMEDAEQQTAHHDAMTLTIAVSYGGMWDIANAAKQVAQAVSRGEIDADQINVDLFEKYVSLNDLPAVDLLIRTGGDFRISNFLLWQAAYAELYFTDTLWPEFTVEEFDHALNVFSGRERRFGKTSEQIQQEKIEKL
Text: as §1, §2, §3, §4, §5, §6, §7, §8, §9, §10, §11, §12, §13, §14, §15

[3] = tested on: Acinetobacter baumannii BM4652 ΔadeABC ΔadeIJK (efflux mutant); assay: MIC broth microdilution; type: cell-based
[4] = tested on: Escherichia coli 7623 ΔtolC; assay: MIC broth microdilution; type: cell-based
[5] = tested on: Klebsiella pneumoniae 1161486a ΔtolC; assay: MIC broth microdilution; type: cell-based
[6] = tested on: Pseudomonas aeruginosa PA0322 Δ(mexAB-oprM) Δ(mexCD-oprJ) Δ(mexEF-oprN); assay: MIC broth microdilution; type: cell-based
[7] = tested on: Acinetobacter baumannii ATCC 19606-1 ΔLpxC; assay: MIC broth microdilution; type: cell-based; settings: ATCC19606
[8] = tested on: Haemophilus influenzae H128 ΔacrB; assay: MIC broth microdilution; type: cell-based
[9] = tested on: A. baumannii BM4652 efflux mutant, pRK415 and pRK415-UppS; assay: microbe, parasite or virus in culture; type: cell-based, Acinetobacter baumannii

Structure (SMILES) | IC50 [1] [nM] | antibacterial activity ([2]; S. aureus) | MIC ([2]; S. aureus WCUH29 wild type, read-out: MIC) [µg/mL] | IC50 (A. baumannii UppS) [nM] | MIC [2] [µg/mL] | MIC ([3]; A. baumannii BM652 efflux strain) [µg/mL] | MIC ([3]; A. baumannii BM4652 ΔadeABC ΔadeIJK efflux mutant) [µg/mL] | MIC [4] [µg/mL] | MIC [5] [µg/mL] | MIC [6] [µg/mL] | MIC [7] [µg/mL] | MIC [8] [µg/mL] | MIC ([9]; A. baumannii BM4652 efflux mutant + pRK415-UppS, 30 μg/ml polymyxin B nonapeptide) [µg/mL] | MIC ([9]; A. baumannii BM4652 efflux mutant + pRK415, 30 μg/ml polymyxin B nonapeptide) [µg/mL] | MIC ([9]; Acinetobacter baumannii, A. baumannii BM4652 efflux mutant + pRK415-UppS, 30 μg/ml polymyxin B nonapeptide) [µg/mL] | MIC ([9]; Acinetobacter baumannii, A. baumannii BM4652 efflux mutant + pRK415, 30 μg/ml polymyxin B nonapeptide) [µg/mL] | MIC ([9]; Acinetobacter baumannii, A. baumannii BM4652 efflux mutant, N/A (no plasmid), 30 μg/ml polymyxin B nonapeptide) [µg/mL] | MIC ([9]; Acinetobacter baumannii, without the permeabilising agent) [µg/mL] | Fold MIC increase ([9]; pRK415-UppS overexpressing strain relative to parent strain, 30 μg/ml polymyxin B nonapeptide) [fold]
Cc1nnc(Cn2c(C(C)Cc3ccc4c(c3)OCO4)nc3cccc(Cl)c32)[nH]1 (stereo not shown) [Compound 3] | 350 ± 10 | lacked S. aureus antibacterial activity; also recorded: lacks antibacterial activity | > 128 | – | – | – | – | – | – | – | – | – | – | – | – | – | – | – | –
CNC(=O)[C@@H](NC(=O)c1cc(Cl)c(Cl)cc1C(=O)NCc1ccc(C(C)(C)C)cc1)C(C)(C)C [Compound 5] | – | – | – | 43 ± 25 | > 128 | > 128 | > 128 | > 128 | > 128 | > 128 | < 0.125 | 1 (≈ 1.97 µM) | 2 | 0.25 | 2 | 0.25 | 0.25 | > 128 | 8
